{"source": "patent EP0952771B1", "about": "“NOVEL SAPONIN COMPOSITIONS AND USES THEREOF” (priority 1996, dated 1998)", "key": {"ovalbumin": {"tested_on": "ovalbumin", "details": "at 2.5 µg or lower; cited from earlier work"}, "E.G7-OVA target cells": {"tested_on": "E.G7-OVA target cells", "test": "Cytotoxic T lymphocyte (CTL) 51Cr cytotoxicity assay with splenic mononuclear cells of immunized mice", "assay_type": "in vivo, C57BL/6 mice", "details": "subcutaneously at week 1, 3 and 5", "experimental": "(§1) All experiments were carried out in C57BL/6 mice (female, 8-12 weeks of age). The synergistic adjuvant-effect of the QS-21/QS-7 mixtures was assessed by two parameters: (1) the ability of these mixtures to improve antibody titers to a subunit antigen, ovalbumin, in mice; and (2) the ability of these mixtures to improve an ovalbumin-specific cytotoxic T lymphocyte (killer cell) response in mice.\nThe experimental techniques were the following. The mice were immunized subcutaneously at week 1, 3, and 5 with 0.2 ml of the indicated formulations in phosphate-buffered saline. Mice were immunized in groups of five. Sera and spleens were harvested at weeks 7 to 9. Sera was assayed for anti-ovalbumin antibody response by enzyme immunoassay. Briefly, a 96 well Immulon plate was coated with 10 µg/ml ovalbumin in phosphate-buffered saline (PBS) overnight at 4°C. These plates were blocked with 10% normal goat serum in PBS (diluent) for one hour at room temperature. Serial 1:10 dilutions of serum were made in diluent and were incubated on the plates for one hour at room temperature or overnight at 4°C. An enzyme conjugate of anti-mouse IgG (or anti-mouse IgG subclass) was diluted in diluent and incubated on the plate. A colorimetric enzyme substrate, tetramethylbenzidine, was used to assay for binding of anti-ovalbumin antibody. Spleens from immunized mice were used to assay for the cytotoxic T lymphocyte (CTL) response. The effector cells for the (CTL) assay were splenic mononuclear cells from the harvested spleens. The antigen-positive target cells for the assay were E.G7-OVA cells, which are an MHC class II antigen-negative EL4 mouse cell line, transfected with the ovalbumin gene. […] EL4 cells were used as an ovalbumin-negative target cell line. Prior to assay, splenic mononuclear cells were stimulated with antigen to induce maturation of precursor CTL in the effector cell population. The antigens used for stimulation were mitomycin C treated E.G7-OVA cells (incubated with spleen cells at a ratio of 20:1 spleen cells: E.G7-OVA cells) or denatured ovalbumin (25 µg/ml). […]"}, "mice": {"tested_on": "mice", "details": "mouse, in vivo; cited from earlier work"}, "anti-ovalbumin antibody": {"tested_on": "anti-ovalbumin antibody", "test": "Anti-ovalbumin antibody response in serum by enzyme immunoassay", "assay_type": "in vivo, C57BL/6 mice", "details": "0.625 µg given individually; titer not higher than no adjuvant", "experimental": "as §1\nThe experimental techniques were the following. The mice were immunized subcutaneously at week 1, 3, and 5 with 0.2 ml of the indicated formulations in phosphate-buffered saline. Mice were immunized in groups of five. Sera and spleens were harvested at weeks 7 to 9. Sera was assayed for anti-ovalbumin antibody response by enzyme immunoassay. Briefly, a 96 well Immulon plate was coated with 10 µg/ml ovalbumin in phosphate-buffered saline (PBS) overnight at 4°C. These plates were blocked with 10% normal goat serum in PBS (diluent) for one hour at room temperature. Serial 1:10 dilutions of serum were made in diluent and were incubated on the plates for one hour at room temperature or overnight at 4°C. An enzyme conjugate of anti-mouse IgG (or anti-mouse IgG subclass) was diluted in diluent and incubated on the plate. A colorimetric enzyme substrate, tetramethylbenzidine, was used to assay for binding of anti-ovalbumin antibody. […]"}, "ovalbumin antigen": {"tested_on": "ovalbumin antigen", "details": "doses below 2.5 µg; cited from earlier work"}}, "data": [{"substance": "QS-21", "values": [{"measurement": "cytotoxic T lymphocyte (CTL) response to ovalbumin", "setting": "ovalbumin", "result": "minimal"}, {"measurement": "stimulating a CTL response", "setting": "E.G7-OVA target cells; saponin dose 0.625 µg given alone with ovalbumin", "result": "ineffective"}, {"measurement": "stimulating a CTL response", "setting": "E.G7-OVA target cells; saponin dose 1.25 µg given alone with ovalbumin", "result": "ineffective"}, {"measurement": "stimulating a CTL response", "setting": "E.G7-OVA target cells; saponin dose 20 µg given alone with ovalbumin", "result": "highly effective"}, {"measurement": "toxicity in mice", "setting": "mice", "result": "least toxic"}, {"measurement": "titer compared with no adjuvant", "setting": "anti-ovalbumin antibody", "result": "suboptimal"}, {"measurement": "adjuvant for raising an antibody response to the ovalbumin antigen", "setting": "ovalbumin antigen", "result": "ineffective"}]}]}
